Assay results: ChEMBL document CHEMBL4152360 (Bioorg Med Chem, 2018)
Calls of active or inactive are those of the source. The rule behind the calls is not given here.

Legend:
[1] = molecular target: T1, Casein kinase II subunit alpha (Homo sapiens, UniProt P68400); test: Displacement of ARC-1504/ARC-1513-5O from CK2alpha (unknown origin) (1 to 335 residues) after 15 to 60 mins by luminescence assay
[2] = molecular target: T1, Casein kinase II subunit alpha; test: Displacement of ARC-1504/ARC-1513-5O from CK2alpha (unknown origin) (1 to 335 residues) assessed as photoluminescence lifetime using non-deoxygenated solution after 15 to 60 mins by luminescence assay
[3] = molecular target: T1, Casein kinase II subunit alpha; test: Displacement of ARC-1504/ARC-1513-5O from CK2alpha (unknown origin) (1 to 335 residues) assessed as maximal luminescence intensity of the complex after 15 to 60 mins by luminescence assay relative to ARC-1527
[4] = molecular target: Casein kinase II subunit alpha' (Homo sapiens) (UniProt P19784); test: Displacement of ARC-1504/ARC-1513-5O from CK2alpha' (unknown origin) (1 to 335 residues) assessed as photoluminescence lifetime using non-deoxygenated solution after 15 to 60 mins by luminescence assay
[5] = molecular target: T1, Casein kinase II subunit alpha; test: Displacement of ARC-1504/ARC-1513-5O from CK2alpha (unknown origin) (1 to 335 residues) assessed as photoluminescence lifetime using deoxygenated solution after 15 to 60 mins by luminescence assay
Mus musculus [6] = organism: Mus musculus; test: Binding affinity to CK2 in mouse NIH3T3 cell lysate at 10 nM by luminescence assay
[7] = molecular target: T2, Casein kinase II subunit alpha (Mus musculus) (UniProt Q60737); test: Binding affinity to RFP-tagged CK2alpha in mouse NIH/3T3 cell lysate at 10 nM by luminescence assay
T2 sequence (whole entry): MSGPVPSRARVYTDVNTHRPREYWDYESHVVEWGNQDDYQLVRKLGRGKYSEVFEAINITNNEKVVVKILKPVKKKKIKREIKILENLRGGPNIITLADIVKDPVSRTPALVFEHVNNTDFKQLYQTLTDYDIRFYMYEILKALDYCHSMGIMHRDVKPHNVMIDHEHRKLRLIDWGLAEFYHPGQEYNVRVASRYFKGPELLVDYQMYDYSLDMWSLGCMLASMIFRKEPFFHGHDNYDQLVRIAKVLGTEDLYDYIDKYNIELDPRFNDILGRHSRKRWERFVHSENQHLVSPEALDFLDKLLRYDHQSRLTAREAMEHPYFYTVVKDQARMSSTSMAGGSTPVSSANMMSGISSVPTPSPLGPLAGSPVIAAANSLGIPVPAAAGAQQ

[8] = molecular target: T2, Casein kinase II subunit alpha (Mus musculus); test: Binding affinity to RFP-tagged CK2alpha in mouse NIH/3T3 cell lysate at 10 nM by luminescence assay relative to native CK2
Mus musculus [9] = organism: Mus musculus; test: Binding affinity to CK2 in mouse NIH3T3 cell lysate at 10 nM in presence of CK2 inhibitor CX-4945 by luminescence assay
[10] = molecular target: T2, Casein kinase II subunit alpha (Mus musculus); test: Binding affinity to RFP-tagged CK2alpha in mouse NIH/3T3 cell lysate at 10 nM in presence of CK2 inhibitor CX-4945 by luminescence assay
[11] = molecular target: T1, Casein kinase II subunit alpha; test: Displacement of 5-TAMRA-labeled ARC-1530 from CK2alpha (unknown origin) (1 to 335 residues) after 15 to 60 mins by luminescence assay

Structure (SMILES)	Kd [1] [nM]	Time [2] [microsec]	fold change (FC) [3]	Time [4] [microsec]	Time [5] [microsec]	Activity (Mus musculus [6])	Activity [7]	fold change (FC) [8]	Activity (Mus musculus [9])	Activity [10]	Activity [11]
CN(C)c1ccc2c(-c3ccc(C(=O)NCCCC[C@@H](NC(=O)[C@@H](CC(=O)O)NC(=O)[C@@H](CC(=O)O)NC(=O)[C@@H](CC(=O)O)NC(=O)[C@@H](CC(=O)O)NC(=O)[C@@H](CC(=O)O)NC(=O)[C@@H](CC(=O)O)NC(=O)CCCCCNC(=O)CCC(=O)Nc4ncc(-c5ccc(C(=O)O)cc5)[se]4)C(=O)O)cc3C(=O)[O-])c3ccc(=[N+](C)C)cc-3oc2c1	0.85	39	5300	39	58	Active	Active	10	inactive	inactive	
CN(C)c1ccc2c(-c3ccc(C(=O)NCCCC[C@@H](NC(=O)[C@@H](CC(=O)O)NC(=O)[C@@H](CC(=O)O)NC(=O)[C@@H](CC(=O)O)NC(=O)[C@@H](CC(=O)O)NC(=O)[C@@H](CC(=O)O)NC(=O)[C@@H](CC(=O)O)NC(=O)CCCCCNC(=O)CCC(=O)Nc4ncc(-c5ccc(C(=O)O)cc5)s4)C(=O)O)cc3C(=O)[O-])c3ccc(=[N+](C)C)cc-3oc2c1	0.4	62	76	62	165						
Nc1ncc(-c2ccc(C(=O)O)cc2)s1	48										
NCCCC[C@@H](NC(=O)[C@@H](CC(=O)O)NC(=O)[C@@H](CC(=O)O)NC(=O)[C@@H](CC(=O)O)NC(=O)[C@@H](CC(=O)O)NC(=O)[C@@H](CC(=O)O)NC(=O)[C@@H](CC(=O)O)NC(=O)CCCCCNC(=O)CCC(=O)Nc1ncc(-c2ccc(C(=O)O)cc2)[se]1)C(=O)O	0.34	55	46								Active
